The record followed here is ChEMBL document CHEMBL5696441 (Nat Chem Biol, 2011).

Assay [1] concerns Fibroblast growth factor receptor 3 (Homo sapiens), P22607 [K650E]. The assay is described as follows: Inhibition of human FGFR3 K650E mutant assessed as residual activity at 1 uM using PolyEY as substrate in presence of 33P-ATP by ProQinase assay relative to control.
In assay [2] the target is Bone morphogenetic protein receptor type-2 (Homo sapiens) (UniProt Q13873). Nature of the assay: Inhibition of BMPR2 (unknown origin) assessed as remaining activity at 1 uM by Kinome scan method relative to control.
In assay [3] the target is Tyrosine-protein kinase Fyn (Homo sapiens) (UniProt P06241). The assay is described as follows: Inhibition of human FYN assessed as residual activity at 1 uM using polyEY as substrate in presence of 33P-ATP by ProQinase assay relative to control.
Assay [4] addresses CDK4/Cyclin D3 (Homo sapiens) (UniProt P11802+P30281). Nature of the assay: Inhibition of human CDK4/CycD3 assessed as residual activity at 1 uM using RBER-CHKtide as substrate in presence of 33P-ATP by ProQinase assay relative to control. In kind it is protein-complex assay.
For assay [5], the target named is BDNF/NT-3 growth factors receptor (Homo sapiens) (UniProt Q16620). The assay is described as follows: Inhibition of human TRKB assessed as residual activity at 1 uM using polyEY as substrate in presence of 33P-ATP by ProQinase assay relative to control.
The target of assay [6] is Proto-oncogene tyrosine-protein kinase ROS (Homo sapiens) (UniProt P08922). The assay is described as follows: Inhibition of human ROS assessed as residual activity at 1 uM using poly(Ala,Glu,Lys,Tyr)6:2:5:1 as substrate in presence of 33P-ATP by ProQinase assay relative to control.
For assay [7], the target named is Mitogen-activated protein kinase kinase kinase 3 (Homo sapiens) (UniProt Q99759). The assay is described as follows: Inhibition of MAP3K3 (unknown origin) assessed as remaining activity at 1 uM by Kinome scan method relative to control.
Assay [8] has as its target Mitogen-activated protein kinase kinase kinase 11 (Homo sapiens) (UniProt Q16584). Nature of the assay: Inhibition of MLK3 (unknown origin) assessed as remaining activity at 1 uM by Kinome scan method relative to control.
Assay [9] deals with Serine/threonine-protein kinase PAK 2 (Homo sapiens) (UniProt Q13177). The assay is described as follows: Inhibition of human PAK2 assessed as residual activity at 1 uM using bio-4xCHKT as substrate in presence of 33P-ATP by ProQinase assay relative to control.
Assay [10] addresses DNA-dependent protein kinase catalytic subunit (Homo sapiens) (UniProt P78527). Nature of the assay: Inhibition of human DNPK1 assessed as residual activity at 1 uM using RBER-GSK3 as substrate in presence of 33P-ATP by ProQinase assay relative to control.
The target of assay [11] is Ephrin type-B receptor 1 (Homo sapiens) (UniProt P54762). The assay is described as follows: Inhibition of EPHB1 (unknown origin) assessed as remaining activity at 1 uM by Kinome scan method relative to control.
The target in assay [12] is Vascular endothelial growth factor receptor 1 (Homo sapiens) (UniProt P17948). The assay is described as follows: Inhibition of human VEGFR1 assessed as residual activity at 1 uM using polyEY as substrate in presence of 33P-ATP by ProQinase assay relative to control.
The target in assay [13] is Epidermal growth factor receptor (Homo sapiens) (UniProt P00533). Nature of the assay: Inhibition of human EGFR assessed as residual activity at 1 uM using PolyEY as substrate in presence of 33P-ATP by ProQinase assay relative to control.
Assay [14] concerns the target Serine/threonine-protein kinase TBK1 (Homo sapiens) (UniProt Q9UHD2). The assay is described as follows: Inhibition of human TBK1 assessed as residual activity at 1 uM using casein as substrate in presence of 33P-ATP by ProQinase assay relative to control.
In assay [15] the target is Testis-specific serine/threonine-protein kinase 2 (Homo sapiens) (UniProt Q96PF2). Nature of the assay: Inhibition of human TSK2 assessed as residual activity at 1 uM using RBER-CHKtide as substrate in presence of 33P-ATP by ProQinase assay relative to control.
For assay [16], the target named is Serine/threonine-protein kinase RIO3 (Homo sapiens) (UniProt O14730). The assay is described as follows: Inhibition of RIOK3 (unknown origin) assessed as remaining activity at 1 uM by Kinome scan method relative to control.
In assay [17] the target is Insulin receptor-related protein (Homo sapiens) (UniProt P14616). Nature of the assay: Inhibition of human INSRR assessed as residual activity at 1 uM using poly(Ala,Glu,Lys,Tyr)6:2:5:1 as substrate in presence of 33P-ATP by ProQinase assay relative to control.
Assay [18] deals with Epidermal growth factor receptor (Homo sapiens), P00533 [L858R]. The assay is described as follows: Inhibition of human EGFR L858R mutant assessed as residual activity at 1 uM using PolyEY as substrate in presence of 33P-ATP by ProQinase assay relative to control.
Assay [19] deals with Tyrosine-protein kinase ABL1 (Homo sapiens), P00519 [G250E]. The assay is described as follows: Inhibition of human ABL1 G250E mutant assessed as residual activity at 1 uM using Poly(Ala,Glu,Lys,Tyr)6:2:5:1 as substrate in presence of 33P-ATP by ProQinase assay relative to control.
The subject of assay [20] is Platelet-derived growth factor receptor alpha (Homo sapiens), P16234 [T674I]. Nature of the assay: Inhibition of human PDGFRalpha T674I mutant assessed as residual activity at 1 uM using Poly(Ala,Glu,Lys,Tyr)6:2:5:1 as substrate in presence of 33P-ATP by ProQinase assay relative to control.
Assay [21] addresses T1, Aurora kinase A (Homo sapiens) (UniProt O14965).
T1 sequence (whole entry): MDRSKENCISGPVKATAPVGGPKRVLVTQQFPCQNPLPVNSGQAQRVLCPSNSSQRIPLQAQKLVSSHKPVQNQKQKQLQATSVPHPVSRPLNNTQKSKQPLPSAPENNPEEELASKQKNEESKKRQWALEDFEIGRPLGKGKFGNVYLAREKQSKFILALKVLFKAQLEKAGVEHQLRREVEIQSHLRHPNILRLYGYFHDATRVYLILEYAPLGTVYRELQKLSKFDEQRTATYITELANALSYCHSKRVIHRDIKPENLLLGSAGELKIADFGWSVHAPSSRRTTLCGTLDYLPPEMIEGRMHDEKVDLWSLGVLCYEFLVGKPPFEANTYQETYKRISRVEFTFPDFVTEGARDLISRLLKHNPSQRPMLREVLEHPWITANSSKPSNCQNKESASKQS
The assay is described as follows: Inhibition of human AuroraA assessed as residual activity at 1 uM using bio-4xCHKT as substrate in presence of 33P-ATP by ProQinase assay relative to control.

The target in assay [22] is AP2-associated protein kinase 1 (Homo sapiens) (UniProt Q2M2I8). Nature of the assay: Inhibition of AAK1 (unknown origin) assessed as remaining activity at 1 uM by Kinome scan method relative to control.
The target of assay [23] is Mitogen-activated protein kinase kinase kinase 1 (Homo sapiens) (UniProt Q13233). The assay is described as follows: Inhibition of MAP3K1 (unknown origin) assessed as remaining activity at 1 uM by Kinome scan method relative to control.

Testis-specific serine/threonine-protein kinase 2 (Homo sapiens), sequence (Q96PF2 whole entry): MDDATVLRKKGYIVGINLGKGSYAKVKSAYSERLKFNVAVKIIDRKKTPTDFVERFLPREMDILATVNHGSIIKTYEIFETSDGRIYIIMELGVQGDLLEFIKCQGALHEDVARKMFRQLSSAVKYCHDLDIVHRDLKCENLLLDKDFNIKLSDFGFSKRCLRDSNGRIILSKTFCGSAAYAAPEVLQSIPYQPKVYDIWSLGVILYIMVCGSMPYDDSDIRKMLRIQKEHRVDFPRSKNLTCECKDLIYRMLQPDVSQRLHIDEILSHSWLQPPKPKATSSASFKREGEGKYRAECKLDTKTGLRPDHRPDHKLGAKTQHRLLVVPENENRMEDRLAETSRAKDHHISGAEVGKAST
Vascular endothelial growth factor receptor 1 (Homo sapiens), sequence (P17948 whole entry): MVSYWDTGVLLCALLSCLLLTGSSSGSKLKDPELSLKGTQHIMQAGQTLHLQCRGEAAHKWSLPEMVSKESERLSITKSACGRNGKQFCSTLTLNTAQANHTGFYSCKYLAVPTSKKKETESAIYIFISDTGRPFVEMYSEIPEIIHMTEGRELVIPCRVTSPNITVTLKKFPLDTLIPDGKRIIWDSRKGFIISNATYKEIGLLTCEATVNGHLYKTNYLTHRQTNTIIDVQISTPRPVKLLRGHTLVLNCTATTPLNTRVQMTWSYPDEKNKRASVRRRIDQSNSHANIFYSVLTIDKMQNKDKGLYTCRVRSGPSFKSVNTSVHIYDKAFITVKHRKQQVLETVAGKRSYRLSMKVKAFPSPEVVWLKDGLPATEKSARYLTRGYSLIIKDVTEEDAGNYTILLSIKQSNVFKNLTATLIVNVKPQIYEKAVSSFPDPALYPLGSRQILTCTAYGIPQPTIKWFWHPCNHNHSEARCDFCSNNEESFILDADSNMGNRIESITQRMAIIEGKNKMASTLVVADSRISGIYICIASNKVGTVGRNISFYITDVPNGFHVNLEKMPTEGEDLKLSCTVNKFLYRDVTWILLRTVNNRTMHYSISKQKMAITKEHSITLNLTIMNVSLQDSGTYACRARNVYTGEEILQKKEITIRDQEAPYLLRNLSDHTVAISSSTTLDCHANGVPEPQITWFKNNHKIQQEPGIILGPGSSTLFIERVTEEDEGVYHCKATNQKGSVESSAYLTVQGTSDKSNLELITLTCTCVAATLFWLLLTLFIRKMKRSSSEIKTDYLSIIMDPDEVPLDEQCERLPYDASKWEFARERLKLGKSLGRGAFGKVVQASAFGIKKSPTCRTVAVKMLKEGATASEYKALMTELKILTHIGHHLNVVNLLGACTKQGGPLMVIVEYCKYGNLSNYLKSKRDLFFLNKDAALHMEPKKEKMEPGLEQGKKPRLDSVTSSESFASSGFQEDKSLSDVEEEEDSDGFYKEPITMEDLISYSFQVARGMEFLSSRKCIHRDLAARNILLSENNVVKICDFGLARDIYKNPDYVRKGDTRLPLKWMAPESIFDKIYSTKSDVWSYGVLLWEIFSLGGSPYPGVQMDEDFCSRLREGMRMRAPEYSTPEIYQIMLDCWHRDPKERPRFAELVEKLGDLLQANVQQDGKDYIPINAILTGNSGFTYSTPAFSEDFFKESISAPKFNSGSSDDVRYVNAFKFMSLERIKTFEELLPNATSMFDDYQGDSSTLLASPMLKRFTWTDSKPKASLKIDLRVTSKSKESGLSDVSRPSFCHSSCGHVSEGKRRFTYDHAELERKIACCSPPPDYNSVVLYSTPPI
Platelet-derived growth factor receptor alpha (Homo sapiens), P16234 [T674I], sequence (P16234 whole entry T674I): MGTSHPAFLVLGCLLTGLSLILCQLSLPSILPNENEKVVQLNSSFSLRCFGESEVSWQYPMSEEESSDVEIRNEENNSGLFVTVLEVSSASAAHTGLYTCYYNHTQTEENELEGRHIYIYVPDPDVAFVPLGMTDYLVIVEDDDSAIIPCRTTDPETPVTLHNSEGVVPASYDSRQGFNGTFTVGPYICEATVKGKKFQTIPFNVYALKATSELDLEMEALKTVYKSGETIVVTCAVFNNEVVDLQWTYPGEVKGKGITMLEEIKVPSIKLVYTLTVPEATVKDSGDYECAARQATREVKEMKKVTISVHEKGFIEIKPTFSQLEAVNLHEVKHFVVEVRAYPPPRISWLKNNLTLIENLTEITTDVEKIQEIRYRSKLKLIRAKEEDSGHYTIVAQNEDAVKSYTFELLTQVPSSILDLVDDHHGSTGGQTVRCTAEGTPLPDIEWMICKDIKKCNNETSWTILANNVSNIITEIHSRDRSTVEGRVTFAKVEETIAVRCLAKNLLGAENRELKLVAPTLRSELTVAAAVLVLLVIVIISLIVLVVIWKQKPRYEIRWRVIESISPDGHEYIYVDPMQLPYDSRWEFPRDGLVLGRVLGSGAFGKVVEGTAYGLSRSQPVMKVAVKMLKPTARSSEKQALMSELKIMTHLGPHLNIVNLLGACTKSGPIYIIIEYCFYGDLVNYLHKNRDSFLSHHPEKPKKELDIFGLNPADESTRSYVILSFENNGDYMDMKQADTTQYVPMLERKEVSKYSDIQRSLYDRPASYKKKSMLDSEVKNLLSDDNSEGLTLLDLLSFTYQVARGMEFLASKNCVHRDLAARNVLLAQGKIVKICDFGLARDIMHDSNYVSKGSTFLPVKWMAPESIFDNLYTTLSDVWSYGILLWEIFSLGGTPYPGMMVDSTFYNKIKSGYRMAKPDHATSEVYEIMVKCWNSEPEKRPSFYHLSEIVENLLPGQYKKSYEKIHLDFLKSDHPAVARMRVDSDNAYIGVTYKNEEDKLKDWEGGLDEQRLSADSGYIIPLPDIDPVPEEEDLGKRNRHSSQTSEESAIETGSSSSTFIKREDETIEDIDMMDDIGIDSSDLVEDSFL
BDNF/NT-3 growth factors receptor (Homo sapiens), sequence (Q16620 32-822 limits assumed): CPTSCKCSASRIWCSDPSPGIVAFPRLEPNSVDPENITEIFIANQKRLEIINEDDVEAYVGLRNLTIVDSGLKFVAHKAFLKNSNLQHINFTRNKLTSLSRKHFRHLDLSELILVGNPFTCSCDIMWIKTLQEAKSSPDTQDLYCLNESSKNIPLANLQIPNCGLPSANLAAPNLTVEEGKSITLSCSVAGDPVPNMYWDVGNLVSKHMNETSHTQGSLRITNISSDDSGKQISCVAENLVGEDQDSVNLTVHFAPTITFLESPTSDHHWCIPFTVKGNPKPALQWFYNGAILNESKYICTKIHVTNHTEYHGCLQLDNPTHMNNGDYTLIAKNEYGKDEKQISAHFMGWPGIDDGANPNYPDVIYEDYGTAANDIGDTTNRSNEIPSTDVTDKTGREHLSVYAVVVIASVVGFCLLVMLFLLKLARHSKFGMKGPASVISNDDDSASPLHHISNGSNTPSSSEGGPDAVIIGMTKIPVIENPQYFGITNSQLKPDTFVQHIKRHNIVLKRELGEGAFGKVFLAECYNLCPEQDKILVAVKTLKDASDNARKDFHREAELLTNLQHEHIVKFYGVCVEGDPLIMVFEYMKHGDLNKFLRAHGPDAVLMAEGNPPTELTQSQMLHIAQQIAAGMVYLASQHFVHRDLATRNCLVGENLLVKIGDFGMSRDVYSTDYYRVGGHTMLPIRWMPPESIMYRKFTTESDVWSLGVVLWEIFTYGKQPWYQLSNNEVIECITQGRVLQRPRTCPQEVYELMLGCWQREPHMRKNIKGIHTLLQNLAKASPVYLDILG
Serine/threonine-protein kinase PAK 2 (Homo sapiens), sequence (Q13177 whole entry): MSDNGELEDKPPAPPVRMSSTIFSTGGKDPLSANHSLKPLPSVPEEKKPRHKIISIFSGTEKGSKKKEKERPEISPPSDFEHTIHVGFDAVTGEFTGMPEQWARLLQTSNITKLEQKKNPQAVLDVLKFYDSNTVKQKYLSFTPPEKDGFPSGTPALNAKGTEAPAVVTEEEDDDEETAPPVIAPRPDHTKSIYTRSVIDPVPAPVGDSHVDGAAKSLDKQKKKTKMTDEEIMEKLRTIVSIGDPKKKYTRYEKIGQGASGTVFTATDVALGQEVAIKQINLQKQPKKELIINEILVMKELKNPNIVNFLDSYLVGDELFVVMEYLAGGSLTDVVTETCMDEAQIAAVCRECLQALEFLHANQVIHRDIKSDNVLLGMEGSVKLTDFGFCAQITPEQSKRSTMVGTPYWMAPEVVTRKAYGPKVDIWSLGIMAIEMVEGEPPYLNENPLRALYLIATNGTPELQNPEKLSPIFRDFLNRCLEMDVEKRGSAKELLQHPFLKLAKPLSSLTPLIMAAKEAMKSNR
Serine/threonine-protein kinase RIO3 (Homo sapiens), sequence (O14730 whole entry): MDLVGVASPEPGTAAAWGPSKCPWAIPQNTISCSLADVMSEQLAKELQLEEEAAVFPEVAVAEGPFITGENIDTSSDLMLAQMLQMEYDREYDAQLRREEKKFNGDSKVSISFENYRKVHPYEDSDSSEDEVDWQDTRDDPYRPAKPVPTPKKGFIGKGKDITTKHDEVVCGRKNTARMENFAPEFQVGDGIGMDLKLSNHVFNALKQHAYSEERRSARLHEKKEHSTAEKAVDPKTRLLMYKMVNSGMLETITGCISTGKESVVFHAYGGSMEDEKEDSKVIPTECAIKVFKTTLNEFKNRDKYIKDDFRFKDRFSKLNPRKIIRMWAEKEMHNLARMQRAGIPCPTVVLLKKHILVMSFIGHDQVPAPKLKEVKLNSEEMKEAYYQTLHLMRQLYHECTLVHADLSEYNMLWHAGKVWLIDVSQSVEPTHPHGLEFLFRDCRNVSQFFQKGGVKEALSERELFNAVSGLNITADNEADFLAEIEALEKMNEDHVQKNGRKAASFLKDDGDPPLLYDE

Regarding `O=C1c2ccc(Nc3ccc(F)cc3F)cc2CCc2ccc(OC[C@H](O)CO)cc21` [Skepinone-L], the Activity in [1] is 99%; in assay [2], 100%; in [3] it was 124%; in [4], 98%; in assay [5], 77%; in assay [6], 102%. Further, the Activity in assay [7] worked out at 100%; in [8], 96%; in assay [9], 83%; in assay [10], 82%; in assay [11], 98%; in assay [12], 113%. Moreover, the Activity in assay [13] is 94%; in assay [14] it was 87%; in assay [15], 82%; in assay [16], 99%; in [17] it was 98%; in [18], 89%. Further, the Activity in assay [19] is 97%; in [20], 97%; in assay [21] it was 99%; in [22], 100%; in [23], 100%.
